Laboratory results from patent publication US9802927B2, “Oxadiazine compounds and methods of use thereof” (Denali Therapeutics, Inc., priority 2015, dated 2017).

System: Aβ42
Experiment: In vitro cell screening assay in H4 cells expressing human APP751: Aβ42 by sandwich ELISA
Format: cell-based
Conditions: compounds 0.003-10 μM, incubated overnight (16-18 h), sandwich ELISA of supernatant
In short: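 H4 neuroglioma cells stably expressing wild-type human APP751, switched to Pro293 medium and treated with compounds (0.003-10 μM, 0.33% DMSO) for 16-18 h at 37 °C. Supernatant Aβ42 quantified by sandwich ELISA (C-terminal capture, 4G8-HRP detection, A450); EC50 by sigmoidal fit normalized to DMSO and DAPT controls.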

COc1nc(C2=NOCC(C(C)(C)C)N2)ccc1-n1cnc(C)c1 (single isomer, unassigned; (-)) [Example 147A, (−)-5-(tert-butyl)-3-(6-methoxy-5-(4-methyl-1H-imidazol-1-yl)pyridin-2-yl)-5,6-dihydro-4H-1,2,4-oxadiazine]
EC50: 130 nM

COc1nc(C2=NOCC(c3cn(C)c4cccc(C(F)(F)F)c34)N2)ccc1-n1cnc(C)c1 (single isomer, unassigned; (-)) [Example 230B, (−)-3-(6-methoxy-5-(4-methyl-1H-imidazol-1-yl)pyridin-2-yl)-5-(1-methyl-4-(trifluoromethyl)-1H-indol-3-yl)-5,6-dihydro-4H-1,2,4-oxadiazine]
EC50: 25.2 nM

COc1nc(C2=NOCC(c3cn(C)c4cc(F)ccc34)N2)ccc1-n1cnc(C)c1 (single isomer, unassigned; (-)) [Example 192A, (−)-5-(6-fluoro-1-methyl-1H-indol-3-yl)-3-(6-methoxy-5-(4-methyl-1H-imidazol-1-yl)pyridin-2-yl)-5,6-dihydro-4H-1,2,4-oxadiazine]
EC50: 170 nM

COc1cc2c(cc1Cl)c(C1CON=C(c3ccc(-n4cnc(C)c4)c(OC)n3)N1)cn2C (single isomer, unassigned; (-)) [Example 255A, (−)-5-(5-chloro-6-methoxy-1-methyl-1H-indol-3-yl)-3-(6-methoxy-5-(4-methyl-1H-imidazol-1-yl)pyridin-2-yl)-5,6-dihydro-4H-1,2,4-oxadiazine]
EC50: 70.4 nM

COc1nc(C2=NOCC(c3cc4cccc(Cl)c4o3)N2)ccc1-n1cnc(C)c1 (single isomer, unassigned; (+)) [Example 64B, (+)-5-(7-chlorobenzofuran-2-yl)-3-(6-methoxy-5-(4-methyl-1H-imidazol-1-yl)pyridin-2-yl)-5,6-dihydro-4H-1,2,4-oxadiazine]
EC50: 12.2 nM

COc1nc(C2=NOCC(c3cn(C4CC4)c4cccc(F)c34)N2)ccc1-n1cnc(C)c1 (single isomer, unassigned; (+)) [Example 222A, (+)-5-(1-cyclopropyl-4-fluoro-1H-indol-3-yl)-3-(6-methoxy-5-(4-methyl-1H-imidazol-1-yl)pyridin-2-yl)-5,6-dihydro-4H-1,2,4-oxadiazine]
EC50: 11.2 nM

COc1nc(C2=NOCC(c3cn(C)c4cccc(C#N)c34)N2)ccc1-n1cnc(C)c1 (single isomer, unassigned; (+)) [Example 247A, (+)-3-(3-(6-methoxy-5-(4-methyl-1H-imidazol-1-yl)pyridin-2-yl)-5,6-dihydro-4H-1,2,4-oxadiazin-5-yl)-1-methyl-1H-indole-4-carbonitrile]
EC50 (Homo sapiens): 47.1 nM

COc1nc(C2=NOCC(c3nc4ccccc4o3)N2)ccc1-n1cnc(C)c1 (single isomer, unassigned; (-)) [Example 203A, (−)-2-(3-(6-methoxy-5-(4-methyl-1H-imidazol-1-yl)pyridin-2-yl)-5,6-dihydro-4H-1,2,4-oxadiazin-5-yl)benzo[d]oxazole]
EC50: 2320 nM

COc1nc(C2=NOCC(c3cc4ccc(F)cc4o3)N2)ccc1-n1cnc(C)c1 (single isomer, unassigned; (+)) [Example 52B, (+)-5-(6-fluorobenzofuran-2-yl)-3-(6-methoxy-5-(4-methyl-1H-imidazol-1-yl)pyridin-2-yl)-5,6-dihydro-4H-1,2,4-oxadiazine]
EC50: 24.6 nM

COc1nc(C2=NOCC(c3cn(C)c4ccccc34)N2)ccc1-n1cnc(C)c1 (single isomer, unassigned; (-)) [Example 189B, (−)-3-(6-methoxy-5-(4-methyl-1H-imidazol-1-yl)pyridin-2-yl)-5-(1-methyl-1H-indol-3-yl)-5,6-dihydro-4H-1,2,4-oxadiazine]
EC50: 252 nM

COc1nc(C2=NOCC(c3cc4ccccc4o3)N2)ccc1-n1cnc(C)n1 (single isomer, unassigned; (+)) [Example 31B, (+)-5-(Benzofuran-2-yl)-3-(6-methoxy-5-(3-methyl-1H-1,2,4-triazol-1-yl)pyridin-2-yl)-5,6-dihydro-4H-1,2,4-oxadiazine]
EC50: 636 nM

COc1nc(C2=NOCC(c3cc4cccc(C)c4o3)N2)ccc1-n1cnc(C)c1 (single isomer, unassigned) [Example 7A, 3-(6-Methoxy-5-(4-methyl-1H-imidazol-1-yl)pyridin-2-yl)-5-(7-methylbenzofuran-2-yl)-5,6-dihydro-4H-1,2,4-oxadiazine]
EC50: > 3000 nM

COc1nc(C2=NOCC(c3ccc(Cl)c(C(F)F)c3)N2)ccc1-n1cnc(C)c1 (single isomer, unassigned; (-)) [Example 270A, (−)-5-(4-chloro-3-(difluoromethyl)phenyl)-3-(6-methoxy-5-(4-methyl-1H-imidazol-1-yl)pyridin-2-yl)-5,6-dihydro-4H-1,2,4-oxadiazine]
EC50: 418 nM

COc1nc(C2=NOCC(c3ccc(Cl)cc3C)N2C)ccc1-n1cnc(C)c1 (single isomer, unassigned) [Example 27A, 5-(4-chloro-2-methylphenyl)-3-(6-methoxy-5-(4-methyl-1H-imidazol-1-yl)pyridin-2-yl)-4-methyl-5,6-dihydro-4H-1,2,4-oxadiazine]
EC50: 2180 nM

COc1nc(C2=NOCC(C3CC3)N2)ccc1-n1cnc(C)c1 (single isomer, unassigned) [Example 134A, 5-cyclopropyl-3-(6-methoxy-5-(4-methyl-1H-imidazol-1-yl)pyridin-2-yl)-5,6-dihydro-4H-1,2,4-oxadiazine]
EC50: > 3000 nM

COc1nc(C2=NOCC(c3cnn(C)c3)N2)ccc1-n1cnc(C)c1 (single isomer, unassigned; (+)) [Example 166B, (+)-3-(6-methoxy-5-(4-methyl-1H-imidazol-1-yl)pyridin-2-yl)-5-(1-methyl-1H-pyrazol-4-yl)-5,6-dihydro-4H-1,2,4-oxadiazine]
EC50: > 3000 nM

COc1nc(C2=NOCC(C3CC(F)(F)C3)N2)ccc1-n1cnc(C)c1 (single isomer, unassigned; (+)) [Example 180B, (+)-5-(3,3-difluorocyclobutyl)-3-(6-methoxy-5-(4-methyl-1H-imidazol-1-yl)pyridin-2-yl)-5,6-dihydro-4H-1,2,4-oxadiazine]
EC50: 281 nM

COc1nc(C2=NOCC(c3cccc(OC(F)(F)F)c3)N2)ccc1-n1cnc(C)c1 (single isomer, unassigned; (+)) [Example 242B, (+)-3-(6-methoxy-5-(4-methyl-1H-imidazol-1-yl)pyridin-2-yl)-5-(3-(trifluoromethoxy)phenyl)-5,6-dihydro-4H-1,2,4-oxadiazine]
EC50: 18.5 nM

COc1nc(C2=NOCC(c3cn(C)c4cc(C(F)(F)F)ccc34)N2)ccc1-n1cnc(C)c1 (single isomer, unassigned; (+)) [Example 197A, (+)-3-(6-methoxy-5-(4-methyl-1H-imidazol-1-yl)pyridin-2-yl)-5-(1-methyl-6-(trifluoromethyl)-1H-indol-3-yl)-5,6-dihydro-4H-1,2,4-oxadiazine]
EC50: 3.4 nM

COc1cc(C2=NOCC(c3nc4cccc(C)c4o3)N2C)ccc1-n1cnc(C)c1 (single isomer, unassigned; (+)) [Example 212A, (+)-2-(3-(3-methoxy-4-(4-methyl-1H-imidazol-1-yl)phenyl)-4-methyl-5,6-dihydro-4H-1,2,4-oxadiazin-5-yl)-7-methylbenzo[d]oxazole]
EC50: 789 nM
